# Legend:
# [1] = tested on: bedstraw; assay: Test B pre/postemergence bedstraw; format: in vivo, Galium aparine
# In short: (§1)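 Response is a visual 0-to-10 score relative to untreated plants, where 0 means no effect and 10 means complete control, taken twelve to sixteen days after application. Treatments went onto soil at planting and onto foliage of 1- to 4-leaf plants, using a surfactant-containing non-phytotoxic solvent.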
# [2] = tested on: blackgrass; assay: Test B pre/postemergence blackgrass; format: in vivo, Alopecurus myosuroides
# In short: as §1
# [3] = tested on: surinam grass; assay: Test B pre/postemergence surinam grass; format: in vivo, Brachiaria decumbens
# In short: as §1
# [4] = tested on: cocklebur; assay: Test B pre/postemergence cocklebur; format: in vivo, Xanthium strumarium
# In short: as §1
# [5] = tested on: corn; assay: Test B pre/postemergence corn; format: in vivo, Zea mays
# In short: as §1
# [6] = tested on: morningglory; assay: Test B pre/postemergence morningglory; format: in vivo, Ipomoea hederacea
# In short: as §1
# [7] = tested on: pigweed; assay: Test B pre/postemergence pigweed; format: in vivo, Amaranthus retroflexus
# In short: as §1
# [8] = tested on: rape; assay: Test B pre/postemergence rape; format: in vivo, Brassica napus
# In short: as §1
# [9] = tested on: velvetleaf; assay: Test B pre/postemergence velvetleaf; format: in vivo, Abutilon theophrasti
# In short: as §1
# [10] = tested on: wheat; assay: Test B pre/postemergence wheat; format: in vivo, Triticum aestivum
# In short: as §1
# [11] = tested on: wild oat; assay: Test B pre/postemergence wild oat; format: in vivo, Avena fatua
# In short: as §1
# [12] = tested on: purple nutsedge; assay: Test B pre/postemergence purple nutsedge; format: in vivo, Cyperus rotundus
# In short: as §1
# [13] = tested on: rice; assay: Test B flood test rice; format: in vivo, Oryza sativa
# In short: (§2)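 Read-out is a visual response score from 0 (no effect) to 10 (complete control), assigned by comparison with untreated controls. Treatment was applied at the 2-leaf stage, and plants stayed in the greenhouse for twelve to sixteen days before scoring.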
# [14] = tested on: smallflower flatsedge; assay: Test B flood test smallflower flatsedge; format: in vivo, Cyperus difformis
# In short: as §2
# [15] = tested on: duck salad; assay: Test B flood test duck salad; format: in vivo, Heteranthera limosa
# In short: as §2
# [16] = tested on: bamyardgrass; assay: Test B flood test barnyardgrass; format: in vivo, Echinochloa crus-galli
# In short: as §2
# [17] = Preemergence, Rate 62 g/ha, scale of 0 to 10 where 0 is no effect and 10 is complete control
# [18] = Preemergence, Rate 250 g/ha, scale of 0 to 10 where 0 is no effect and 10 is complete control
# [19] = Rate 125 g/ha, Postemergence, scale of 0 to 10 where 0 is no effect and 10 is complete control
# [20] = Rate 500 g/ha, Postemergence, scale 0 to 10, 0 no effect, 10 complete control
# [21] = Preemergence, Rate 500 g/ha, scale of 0 to 10 where 0 is no effect and 10 is complete control
# [22] = Rate 62 g/ha, Postemergence, scale 0 to 10 (0 no effect, 10 complete control)
# [23] = Rate 250 g/ha, Postemergence, scale of 0 to 10 where 0 is no effect and 10 is complete control
# [24] = Rate 62 g/ha, headed Pre-emergence (flood test species), scale 0 to 10 (0 no effect, 10 complete control)
# [25] = Rate 125 g/ha, Pre-emergence, flood test species, scale 0 to 10 where 0 is no effect and 10 is complete control
# [26] = Rate 250 g/ha, Pre-emergence, flood-test species, scale 0 to 10, 0 is no effect, 10 is complete control
# [27] = Rate 500 g/ha, Pre-emergence, flood test species, scale 0 to 10 (0 no effect, 10 complete control)
structure (smiles),measurement,setting,value
Cc1cccc(C(C)(C)C)c1-n1c(=O)on(C(=O)N(c2ccccc2)C(C)C)c1=O [Compound 303],Bedstraw plant response rating,[1]; [17],0
same,Bedstraw plant response rating (0 to 10 scale),"[1]; Preemergence, Rate 125 g/ha",0
same,Bedstraw plant response rating,[1]; [18],0
same,Bedstraw plant response rating,[1]; [19],0
same,Bedstraw plant response rating,[1]; [20],0
same,Blackgrass plant response rating,[2]; [17],0
same,Blackgrass plant response rating (0 to 10 scale),"[2]; Preemergence, Rate 125 g/ha",0
same,Blackgrass plant response rating,[2]; [18],0
same,Blackgrass plant response rating,[2]; [21],0
same,Blackgrass plant response rating,[2]; [22],0
same,Blackgrass plant response rating,[2]; [19],0
same,"Plant response rating, Blackgrass",[2]; [23],0
same,Blackgrass plant response rating,[2]; [20],0
same,B. signalgrass plant response rating,[3]; [17],0
same,"B. signalgrass plant response rating (0 to 10 scale, 0 is no effect, 10 is complete control)","[3]; Preemergence, Rate 125 g/ha",0
same,B. signalgrass plant response rating,[3]; [18],0
same,B. signalgrass plant response rating,[3]; [21],0
same,B. signalgrass plant response rating,[3]; [22],0
same,B. signalgrass plant response rating,[3]; [19],0
same,"Plant response rating, B. signalgrass",[3]; [23],0
same,B. signalgrass plant response rating,[3]; [20],0
same,Cocklebur plant response rating,[4]; [17],0
same,Cocklebur plant response rating (0 to 10 scale),"[4]; Preemergence, Rate 125 g/ha",0
same,Cocklebur plant response rating,[4]; [18],0
same,Cocklebur plant response rating,[4]; [21],0
same,Cocklebur plant response rating,[4]; [22],0
same,Cocklebur plant response rating,[4]; [19],0
same,"Plant response rating, Cocklebur",[4]; [23],0
same,Cocklebur plant response rating,[4]; [20],0
same,Corn plant response rating,[5]; [17],0
same,Corn plant response rating (0 to 10 scale),"[5]; Preemergence, Rate 125 g/ha",0
same,Corn plant response rating,[5]; [18],0
same,Corn plant response rating,[5]; [21],0
same,Corn plant response rating,[5]; [22],0
same,Corn plant response rating,[5]; [19],0
same,"Plant response rating, Corn",[5]; [23],0
same,Corn plant response rating,[5]; [20],0
same,Morningglory plant response rating,[6]; [17],0
same,Morningglory plant response rating (0 to 10 scale),"[6]; Preemergence, Rate 125 g/ha",0
same,Morningglory plant response rating,[6]; [18],0
same,Morningglory plant response rating,[6]; [21],3
same,Morningglory plant response rating,[6]; [22],0
same,Morningglory plant response rating,[6]; [19],0
same,"Plant response rating, Morningglory",[6]; [23],0
same,Redroot pigweed plant response rating,[7]; [17],0
same,Redroot pigweed plant response rating (0 to 10 scale),"[7]; Preemergence, Rate 125 g/ha",0
same,Redroot pigweed plant response rating,[7]; [18],0
same,Redroot pigweed plant response rating,[7]; [21],0
same,Redroot pigweed plant response rating,[7]; [22],0
same,Redroot pigweed plant response rating,[7]; [19],0
same,"Plant response rating, Redroot pigweed",[7]; [23],2
same,Rape plant response rating,[8]; [17],0
same,Rape plant response rating (0 to 10 scale),"[8]; Preemergence, Rate 125 g/ha",0
same,Rape plant response rating,[8]; [18],0
same,Rape plant response rating,[8]; [21],0
same,Rape plant response rating,[8]; [22],0
same,Rape plant response rating,[8]; [19],0
same,"Plant response rating, Rape",[8]; [23],0
same,Velvetleaf plant response rating,[9]; [17],0
same,Velvetleaf plant response rating (0 to 10 scale),"[9]; Preemergence, Rate 125 g/ha",0
same,Velvetleaf plant response rating,[9]; [18],0
same,Velvetleaf plant response rating,[9]; [21],0
same,Velvetleaf plant response rating,[9]; [22],0
same,Velvetleaf plant response rating,[9]; [19],0
same,"Plant response rating, Velvetleaf",[9]; [23],0
same,Wheat plant response rating,[10]; [17],0
same,Wheat plant response rating (0 to 10 scale),"[10]; Preemergence, Rate 125 g/ha",0
same,Wheat plant response rating,[10]; [18],0
same,Wheat plant response rating,[10]; [21],0
same,Wheat plant response rating,[10]; [22],0
same,Wheat plant response rating,[10]; [19],0
same,"Plant response rating, Wheat",[10]; [23],0
same,Wild oats plant response rating,[11]; [17],0
same,Wild oats plant response rating (0 to 10 scale),"[11]; Preemergence, Rate 125 g/ha",0
same,Wild oats plant response rating,[11]; [18],0
same,Wild oats plant response rating,[11]; [21],0
same,Wild oats plant response rating,[11]; [22],0
same,Wild oats plant response rating,[11]; [19],0
same,"Plant response rating, Wild oats",[11]; [23],0
same,Nutsedge plant response rating,[12]; [17],0
same,Nutsedge plant response rating,[12]; [18],0
same,Nutsedge plant response rating,[12]; [21],0
same,Nutsedge plant response rating,[12]; [22],0
same,Nutsedge plant response rating,[12]; [19],0
same,"Plant response rating, Nutsedge",[12]; [23],0
same,Rice plant response rating,[13]; [24],0
same,Rice plant response rating,[13]; [25],0
same,Rice plant response rating,[13]; [26],0
same,Rice plant response rating,[13]; [27],0
same,S. Flatsedge plant response rating,[14]; [24],0
same,S. Flatsedge plant response rating,[14]; [25],0
same,S. Flatsedge plant response rating,[14]; [26],0
same,S. Flatsedge plant response rating,[14]; [27],0
same,Ducksalad plant response rating,[15]; [24],0
same,Ducksalad plant response rating,[15]; [25],0
same,Ducksalad plant response rating,[15]; [26],0
same,Ducksalad plant response rating,[15]; [27],0
same,Barnyardgrass plant response rating,[16]; [24],0
same,Barnyardgrass plant response rating,[16]; [25],0
same,Barnyardgrass plant response rating,[16]; [26],0
same,Barnyardgrass plant response rating,[16]; [27],0

# Reference: US6737383B1, “Herbicidal oxadiazolidines” (priority 1999, dated 2004)
